Test results reported in PMC10762078, “Role of UPF1-LIN28A interaction during early differentiation of pluripotent stem cells” (Nature Communications, 2024).

System: hPSCs
Assay: RT-qPCR of pluripotency and germ-layer markers during differentiation with CPP-peptides (Supplementary Fig. 7b-e)
Format: cell-based, human
[1] = Fig. s7d, day 3, mean of 3 replicates
[2] = Fig. s7d, day 4, mean of 3 replicates

Substance: N-QKLDQKELQLEPM-C [P1, reference compound]
- CXCR4 (RT-qPCR) (Day 0, replicate 1, Fig. s7e): 1.088
- CXCR4 (RT-qPCR) (Day 0, replicate 2, Fig. s7e): 0.7848
- CXCR4 (RT-qPCR) (Day 0, replicate 3, Fig. s7e): 1.127
- CXCR4 (RT-qPCR) (Day 3, replicate 1, Fig. s7e): 801.652
- CXCR4 (RT-qPCR) (Day 3, replicate 2, Fig. s7e): 485.59
- CXCR4 (RT-qPCR) (Day 3, replicate 3, Fig. s7e): 555.318
- CXCR4 (RT-qPCR) (Day 5, replicate 1, Fig. s7e): 1042.02
- CXCR4 (RT-qPCR) (Day 5, replicate 2, Fig. s7e): 799.656
- CXCR4 (RT-qPCR) (Day 5, replicate 3, Fig. s7e): 801.596
- Mean CXCR4 (RT-qPCR) (CXCR4 day 3, mean of n = 3, Fig. s7e): 614.2
- Mean CXCR4 (RT-qPCR) (CXCR4 day 5, mean of n = 3, Fig. s7e): 881.1
- FOXA1 (RT-qPCR) (Day 0, replicate 1, Fig. s7e): 1.247
- FOXA1 (RT-qPCR) (Day 0, replicate 2, Fig. s7e): 1.413
- FOXA1 (RT-qPCR) (Day 0, replicate 3, Fig. s7e): 0.3396
- FOXA1 (RT-qPCR) (Day 3, replicate 1, Fig. s7e): 110.429
- FOXA1 (RT-qPCR) (Day 3, replicate 2, Fig. s7e): 100.761
- FOXA1 (RT-qPCR) (Day 3, replicate 3, Fig. s7e): 171.159
- FOXA1 (RT-qPCR) (Day 5, replicate 1, Fig. s7e): 247.532
- FOXA1 (RT-qPCR) (Day 5, replicate 2, Fig. s7e): 297.277
- FOXA1 (RT-qPCR) (Day 5, replicate 3, Fig. s7e): 395.679
- Mean FOXA1 (RT-qPCR) (FOXA1 day 5, mean of n = 3, Fig. s7e): 313.5
- SOX2 mRNA level (RT-qPCR), mean (Fig. s7b, mesoderm, day 4, mean of 3 replicates): 0.001971
- BMP2 mRNA level (RT-qPCR) (Fig. s7d, Day 0, replicate 1): 0.8054
- BMP4 mRNA level (RT-qPCR) (Fig. s7d, Day 0, replicate 1): 1.545
- CDH2 mRNA level (RT-qPCR) (Fig. s7d, Day 0, replicate 1): 1.016
- CXCR4 mRNA level (RT-qPCR) (Fig. s7d, Day 0, replicate 1): 0.9995
- SNAI1 mRNA level (RT-qPCR) (Fig. s7d, Day 0, replicate 1): 1.4406
- TBXT mRNA level (RT-qPCR) (Fig. s7d, Day 0, replicate 1): 1.3
- BMP2 mRNA level (RT-qPCR) (Fig. s7d, Day 0, replicate 2): 1.199
- BMP4 mRNA level (RT-qPCR) (Fig. s7d, Day 0, replicate 2): 0.6508
- CDH2 mRNA level (RT-qPCR) (Fig. s7d, Day 0, replicate 2): 0.7569
- CXCR4 mRNA level (RT-qPCR) (Fig. s7d, Day 0, replicate 2): 1.121
- SNAI1 mRNA level (RT-qPCR) (Fig. s7d, Day 0, replicate 2): 0.9418
- TBXT mRNA level (RT-qPCR) (Fig. s7d, Day 0, replicate 2): 0.8652
- BMP2 mRNA level (RT-qPCR) (Fig. s7d, Day 0, replicate 3): 0.9954
- BMP4 mRNA level (RT-qPCR) (Fig. s7d, Day 0, replicate 3): 0.8046
- CDH2 mRNA level (RT-qPCR) (Fig. s7d, Day 0, replicate 3): 1.227
- CXCR4 mRNA level (RT-qPCR) (Fig. s7d, Day 0, replicate 3): 0.8798
- SNAI1 mRNA level (RT-qPCR) (Fig. s7d, Day 0, replicate 3): 0.6176
- TBXT mRNA level (RT-qPCR) (Fig. s7d, Day 0, replicate 3): 0.8351
- BMP2 mRNA level (RT-qPCR) (Fig. s7d, Day 3, replicate 1): 1.069
- BMP4 mRNA level (RT-qPCR) (Fig. s7d, Day 3, replicate 1): 26.604
- CDH2 mRNA level (RT-qPCR) (Fig. s7d, Day 3, replicate 1): 19.4651
- CXCR4 mRNA level (RT-qPCR) (Fig. s7d, Day 3, replicate 1): 690.154
- SNAI1 mRNA level (RT-qPCR) (Fig. s7d, Day 3, replicate 1): 17.0238
- TBXT mRNA level (RT-qPCR) (Fig. s7d, Day 3, replicate 1): 6332.26
- BMP2 mRNA level (RT-qPCR) (Fig. s7d, Day 3, replicate 2): 1.012
- BMP4 mRNA level (RT-qPCR) (Fig. s7d, Day 3, replicate 2): 28.0652
- CDH2 mRNA level (RT-qPCR) (Fig. s7d, Day 3, replicate 2): 19.9537
- CXCR4 mRNA level (RT-qPCR) (Fig. s7d, Day 3, replicate 2): 760.409
- SNAI1 mRNA level (RT-qPCR) (Fig. s7d, Day 3, replicate 2): 25.1744
- TBXT mRNA level (RT-qPCR) (Fig. s7d, Day 3, replicate 2): 7659.6
- BMP2 mRNA level (RT-qPCR) (Fig. s7d, Day 3, replicate 3): 1.524
- BMP4 mRNA level (RT-qPCR) (Fig. s7d, Day 3, replicate 3): 46.0509
- CDH2 mRNA level (RT-qPCR) (Fig. s7d, Day 3, replicate 3): 27.2966
- CXCR4 mRNA level (RT-qPCR) (Fig. s7d, Day 3, replicate 3): 857.014
- SNAI1 mRNA level (RT-qPCR) (Fig. s7d, Day 3, replicate 3): 26.6105
- TBXT mRNA level (RT-qPCR) (Fig. s7d, Day 3, replicate 3): 10449.6
- BMP2 mRNA level (RT-qPCR) (Fig. s7d, Day 4, replicate 1): 0.2301
- BMP4 mRNA level (RT-qPCR) (Fig. s7d, Day 4, replicate 1): 13.0546
- CDH2 mRNA level (RT-qPCR) (Fig. s7d, Day 4, replicate 1): 16.734
- CXCR4 mRNA level (RT-qPCR) (Fig. s7d, Day 4, replicate 1): 712.401
- SNAI1 mRNA level (RT-qPCR) (Fig. s7d, Day 4, replicate 1): 5.736
- TBXT mRNA level (RT-qPCR) (Fig. s7d, Day 4, replicate 1): 3587.41
- BMP2 mRNA level (RT-qPCR) (Fig. s7d, Day 4, replicate 2): 0.3418
- BMP4 mRNA level (RT-qPCR) (Fig. s7d, Day 4, replicate 2): 14.5702
- CDH2 mRNA level (RT-qPCR) (Fig. s7d, Day 4, replicate 2): 18.1378
- CXCR4 mRNA level (RT-qPCR) (Fig. s7d, Day 4, replicate 2): 778.248
- SNAI1 mRNA level (RT-qPCR) (Fig. s7d, Day 4, replicate 2): 15.183
- TBXT mRNA level (RT-qPCR) (Fig. s7d, Day 4, replicate 2): 4442.19
- BMP2 mRNA level (RT-qPCR) (Fig. s7d, Day 4, replicate 3): 0.2814
- BMP4 mRNA level (RT-qPCR) (Fig. s7d, Day 4, replicate 3): 11.4814
- CDH2 mRNA level (RT-qPCR) (Fig. s7d, Day 4, replicate 3): 17.3255
- CXCR4 mRNA level (RT-qPCR) (Fig. s7d, Day 4, replicate 3): 495.057
- SNAI1 mRNA level (RT-qPCR) (Fig. s7d, Day 4, replicate 3): 11.0955
- TBXT mRNA level (RT-qPCR) (Fig. s7d, Day 4, replicate 3): 3830.03
- SNAI1 mRNA level (RT-qPCR), mean [1]: 22.94
- TBXT mRNA level (RT-qPCR), mean [1]: 8147
- BMP4 mRNA level (RT-qPCR), mean [2]: 13.04
- CDH2 mRNA level (RT-qPCR), mean [2]: 17.4
- TBXT mRNA level (RT-qPCR), mean [2]: 3953
- GATA4 (RT-qPCR) (Day 0, replicate 1, Fig. s7e): 0.7242
- GATA4 (RT-qPCR) (Day 0, replicate 2, Fig. s7e): 1.3517
- GATA4 (RT-qPCR) (Day 0, replicate 3, Fig. s7e): 0.9241
- GATA4 (RT-qPCR) (Day 3, replicate 1, Fig. s7e): 30.0473
- GATA4 (RT-qPCR) (Day 3, replicate 2, Fig. s7e): 43.5025
- GATA4 (RT-qPCR) (Day 3, replicate 3, Fig. s7e): 37.4013
- GATA4 (RT-qPCR) (Day 5, replicate 1, Fig. s7e): 61.3703
- GATA4 (RT-qPCR) (Day 5, replicate 2, Fig. s7e): 60.3509
- GATA4 (RT-qPCR) (Day 5, replicate 3, Fig. s7e): 57.9664
- SOX17 (RT-qPCR) (Day 0, replicate 1, Fig. s7e): 1.264
- SOX17 (RT-qPCR) (Day 0, replicate 2, Fig. s7e): 0.8709
- SOX17 (RT-qPCR) (Day 0, replicate 3, Fig. s7e): 0.8647
- SOX17 (RT-qPCR) (Day 3, replicate 1, Fig. s7e): 1651.55
- SOX17 (RT-qPCR) (Day 3, replicate 2, Fig. s7e): 1098.49
- SOX17 (RT-qPCR) (Day 3, replicate 3, Fig. s7e): 1780.82
- SOX17 (RT-qPCR) (Day 5, replicate 1, Fig. s7e): 1087.63
- SOX17 (RT-qPCR) (Day 5, replicate 2, Fig. s7e): 1382.51
- SOX17 (RT-qPCR) (Day 5, replicate 3, Fig. s7e): 1398.03
